Tests used:
[1] = tested on: human rhabdomyosarcoma Rh30 cells; assay: Proliferation of Rh30 cells (sulforhodamine B); assay type: cell-based; details: for IC50: Homo sapiens, Rh30, 72 h, read-out: IC50 against proliferation of Rh30 cells; for inhibitory activity on Rh30 cell proliferation (in words): 72 h
Experimental: Rh30 cells were seeded in a 96-well plate at 3000 cells/well. After the cells adhered, tested compounds at concentration of 10, 3, 1, 0.3, or 0.1 μM were added, and incubated for 72 h. The culture media were discarded and cells were fixed with trichloroacetic acid. After washed with distilled water for five times and dried, sulfonylrhodamine B was added. After washed with 1% glacial acetic acid for five times and dried, trihydroxymethylaminomethane buffer was added. OD value was measured by using a microplate reader at a wavelength of 560 nm.

[2] = tested on: human neuroglioma U87-MG xenograft; assay: Growth of U87-MG xenograft subcutaneously transplanted in nude mouse; assay type: in vivo; details: for growth of subcutaneously transplanted U87MG xenograft (in words): p.o. once a day for three weeks
Experimental: Well-developed tumors in nude mice were cut into 1.5 mm3 fragments and transplanted s.c. into the right flank of nude mice under sterile conditions. The diameters of subcutaneously transplanted tumours in nude mice were measured with a vernier calipe. […] Control groups were given the same amount of blank solvent, and treatment groups received tested compounds (p.o.). Compounds were administrated once a day for three weeks. Throughout the experiment, the sizes of the tumours were measured twice per week and meanwile the body weights of mice were weighed. The tumour volume (TV) was calculated as follows: TV=½×a×b2, wherein a and b represent the length and width, respectively. The individual relative tumour volume (RTV) was calculated as follows: RTV=Vt/V0, where V0 is the volume at the beginning of the treatment and Vt is the volume measured every time. Evaluation index of antitumor activity was relative tumor proliferation rate T/C (%), the calculation formula of which was as follows: T/C (%)=(TRTV/CRTV)×100%, TRTV:RTV of treatment group; CRTV:RTV of negative control group.

`CN(C)Cc1cc2c(N3CCOCC3)nc(-c3ccc(NC(=O)Nc4ccc(F)cc4)cc3)nn2c1` [Compound I-4, 1-[4-(6-dimethylaminomethyl-4-morpholinopyrrolo[2,1-f][1,2,4]triazin-2-yl)phenyl]-3-(p-fluorophenyl)urea] gave an IC50 [1] of 0.4 µM.

`CN(C)Cc1cc2c(N3CCOCC3)nc(-c3ccc(NC(=O)Nc4ccc(Cl)cc4)cc3)nn2c1` [Compound I-5, 1-[4-(6-dimethylaminomethyl-4-morpholinopyrrolo[2,1-f][1,2,4]triazin-2-yl)phenyl]-3-(p-chlorophenyl)urea] showed an IC50 [1] of 1.24 µM.

Work on `CN(C)Cc1cc2c(N3CCOCC3)nc(-c3ccc(NC(=O)Nc4cccc(Cl)c4)cc3)nn2c1` [Compound I-6, 1-(3-chlorophenyl)-3-(4-(6-((dimethylamino)methyl)-4-morpholinopyrrolo[2,1-f][1,2,4]triazin-2-yl)phenyl)urea] yielded an IC50 [1] of 1.36 µM.

With `Cc1ccc(NC(=O)Nc2ccc(-c3nc(N4CCOCC4)c4cc(CN(C)C)cn4n3)cc2)cc1` [Compound I-9, 1-(4-(6-((dimethylamino)methyl)-4-morpholinopyrrolo[2,1-f][1,2,4]triazin-2-yl)phenyl)-3-(p-tolyl)urea] the IC50 [1] was 0.99 µM.

`CN(C)Cc1cc2c(N3CCOCC3)nc(-c3ccc(NC(=O)Nc4ccc(C(=O)N(C)C)cc4)cc3)nn2c1` [Compound I-14, 4-(3-(4-(6-((dimethylamino)methyl)-4-morpholinopyrrolo[2,1-f][1,2,4]triazin-2-yl)phenyl)ureido)-N,N-dimethylbenzamide] was tested, and the IC50 [1] was 0.5 µM.

For `CN(C)Cc1cc2c(N3CCOCC3)nc(-c3cccc(CO)c3)nn2c1` [Compound I-24, (3-(6-((dimethylamino)methyl)-4-morpholinopyrrolo[2,1-f][1,2,4]triazin-2-yl)phenyl)methanol], the “inhibitory activity on Rh30 cell proliferation (in words)” value [1] was “tens of nanomolar” and the IC50 [1] was 0.074 µM.

`CN(C)Cc1cc2c(N3CCOCC3)nc(-c3cccc(CS(C)(=O)=O)c3)nn2c1` [Compound I-25, N,N-dimethyl-1-(2-(3-((methylsulfonyl)methyl)phenyl)-4-morpholinopyrrolo[2,1-f][1,2,4]triazin-6-yl)methanamine] was tested, and the “inhibitory activity on Rh30 cell proliferation (in words)” value [1] was “tens of nanomolar” and the IC50 [1] was 0.039 µM.

`CN(C)Cc1cc2c(N3CCOCC3)nc(-c3cccc(CNS(C)(=O)=O)c3)nn2c1` [Compound I-26, N-(3-(6-((dimethylamino)methyl)-4-morpholinopyrrolo[2,1-f][1,2,4]triazin-2-yl)benzyl)methanesulfonamide] gave an IC50 [1] of 0.24 µM.

`CS(=O)(=O)N1CCN(Cc2cc3c(N4CC5CCC(C4)O5)nc(-c4cnc(N)cc4C(F)(F)F)nn3c2)CC1` [Compound I-29, 5-(4-(8-oxa-3-azabicyclo[3.2.1]octan-3-yl)-6-((4-(methylsulfonyl)piperazin-1-yl)methyl)pyrrolo[2,1-f][1,2,4]triazin-2-yl)-4-(trifluoromethyl)pyridin-2-amine] gave an IC50 [1] of 3.42 µM.

Molecule `CS(=O)(=O)N1CCN(Cc2cc3c(N4CCOCC4)nc(-c4cnc(NC(=O)Oc5ccccc5)cc4C(F)(F)F)nn3c2)CC1` [Compound I-31, Phenyl (5-(6-((4-(methylsulfonyl)piperazin-1-yl)methyl)-4-morpholinopyrrolo[2,1-f][1,2,4]triazin-2-yl)-4-(trifluoromethyl)pyridin-2-yl)carbamate] has an IC50 [1] of 5.06 µM.

With `C[C@H]1COCCN1c1nc(-c2cnc(N)cc2C(F)(F)F)nn2cc(CN3CCN(S(C)(=O)=O)CC3)cc12` [Compound I-34, (S)-5-(4-(3-methylmorpholino)-6-((4-(methylsulfonyl)piperazin-1-yl)methyl)pyrrolo[2,1-f][1,2,4]triazin-2-yl)-4-(trifluoromethyl)pyridin-2-amine] the IC50 [1] was 0.53 µM.

For `CCNC(=O)Nc1cc(C(F)(F)F)c(-c2nc(N3CCOCC3)c3cc(CN4CCN(S(C)(=O)=O)CC4)cn3n2)cn1.CS(=O)(=O)O` [I-30 (mesylate), 1-Ethyl-3-(5-(6-((4-(methylsulfonyl)piperazin-1-yl)methyl)-4-morpholinopyrrolo[2,1-f] [1,2,4]triazin-2-yl)-4-(trifluoromethyl)pyridin-2-yl)urea mesylate], the “Relative tumor proliferation rate T/C” value ([2]; 50 mg/kg p.o. once a day, d0) was 100.00%, the “Relative tumor proliferation rate T/C” value ([2]; 50 mg/kg p.o. once a day, d3) was 67.89% and the “Relative tumor proliferation rate T/C” value ([2]; 50 mg/kg p.o. once a day, d7) was 54.35%. For the same molecule, the “Relative tumor proliferation rate T/C” value ([2]; 50 mg/kg p.o. once a day, d10) was 60.45%, the “Relative tumor proliferation rate T/C” value ([2]; 50 mg/kg p.o. once a day, d14) was 42.46% and the “Relative tumor proliferation rate T/C” value ([2]; 50 mg/kg p.o. once a day, d17) was 41.64%. The “Relative tumor proliferation rate T/C” value ([2]; 50 mg/kg p.o. once a day, d21) was 37.26% and the “growth of subcutaneously transplanted U87MG xenograft (in words)” value [2] was “significant inhibitory effects”.

With `COC(=O)Nc1cc(C(F)(F)F)c(-c2nc(N3CCOCC3)c3cc(CN4CCN(S(C)(=O)=O)CC4)cn3n2)cn1.CS(=O)(=O)O` [I-33 (mesylate), Methyl (5-(6-((4-(methylsulfonyl)piperazin-1-yl)methyl)-4-morpholinopyrrolo[2,1-f][1,2,4]triazin-2-yl)-4-(trifluoromethyl)pyridin-2-yl)carbamate mesylate] the “Relative tumor proliferation rate T/C” value ([2]; 20 mg/kg p.o. once a day, d0) was 100.00%, the “Relative tumor proliferation rate T/C” value ([2]; 20 mg/kg p.o. once a day, d3) was 84.69% and the “Relative tumor proliferation rate T/C” value ([2]; 20 mg/kg p.o. once a day, d7) was 65.90%. The “Relative tumor proliferation rate T/C” value ([2]; 20 mg/kg p.o. once a day, d10) was 55.24%, the “Relative tumor proliferation rate T/C” value ([2]; 20 mg/kg p.o. once a day, d14) was 37.48% and the “Relative tumor proliferation rate T/C” value ([2]; 20 mg/kg p.o. once a day, d17) was 31.92%. For the same molecule, the “Relative tumor proliferation rate T/C” value ([2]; 20 mg/kg p.o. once a day, d21) was 32.61%, the “Relative tumor proliferation rate T/C” value ([2]; 50 mg/kg p.o. once a day, d0) was 100.00% and the “Relative tumor proliferation rate T/C” value ([2]; 50 mg/kg p.o. once a day, d3) was 82.76%. The “Relative tumor proliferation rate T/C” value ([2]; 50 mg/kg p.o. once a day, d7) was 59.61%, the “Relative tumor proliferation rate T/C” value ([2]; 50 mg/kg p.o. once a day, d10) was 54.74% and the “Relative tumor proliferation rate T/C” value ([2]; 50 mg/kg p.o. once a day, d14) was 36.93%. The “Relative tumor proliferation rate T/C” value ([2]; 50 mg/kg p.o. once a day, d17) was 29.89%, the “Relative tumor proliferation rate T/C” value ([2]; 50 mg/kg p.o. once a day, d21) was 25.65% and the “growth of subcutaneously transplanted U87MG xenograft (in words)” value [2] was “significantly inhibited the growth”.

Source: US9724352B2, “Pyrrolo[2,1-F[1,2,4]triazine compounds, preparation methods and applications thereof” (Shanghai Institute of Materia Medica, Chinese Academy of …, priority 2012, dated 2017)
